Experimental findings from article PMC13046274, “Post-translational modifications of GlmR integrate metabolic and stress signals to maintain cell envelope homeostasis in Bacillus subtilis” (PLOS Genetics, 2026) are described below.

For test [1], the target named is T1, GlmR (Bacillus subtilis, UniProt O06974, T304A).
T1 construct: gene mgfK; purified recombinant B. subtilis GlmR T304A, FITC-labeled (pET28a, from E. coli)
In words: fluorescence titration of FITC-labeled GlmR T304A, single-site fit. The test is classed as binding.

The target in test [2] is T2, GlmR (Bacillus subtilis, UniProt O06974).
T2 construct: gene mgfK; purified recombinant B. subtilis GlmR, FITC-labeled (pET28a, from E. coli)
In words: fluorescence titration of FITC-labeled GlmR, single-site fit. The test is classed as binding.

Broadly, the Kd is a measure of binding affinity in units of concentration. Read a low Kd as tighter binding.

T1 sequence (O06974 whole entry T304A): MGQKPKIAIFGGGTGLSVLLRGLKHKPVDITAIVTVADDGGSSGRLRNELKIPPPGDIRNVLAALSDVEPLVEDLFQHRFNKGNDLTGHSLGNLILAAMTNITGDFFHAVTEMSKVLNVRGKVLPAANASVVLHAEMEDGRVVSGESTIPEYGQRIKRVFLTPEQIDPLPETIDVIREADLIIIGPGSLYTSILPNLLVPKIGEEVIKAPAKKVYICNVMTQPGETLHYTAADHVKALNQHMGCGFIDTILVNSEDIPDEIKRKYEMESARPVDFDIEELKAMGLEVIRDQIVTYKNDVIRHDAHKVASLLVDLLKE
T2 sequence (O06974 whole entry): as the sequence (O06974 whole entry T304A) above, with A304T counted along it

For `CC(=O)N[C@H]1[C@@H](OP(=O)(O)OP(=O)(O)OC[C@H]2O[C@@H](n3ccc(=O)[nH]c3=O)[C@H](O)[C@@H]2O)O[C@H](CO)[C@@H](O)[C@@H]1O` [UDP-GlcNAc], the values for the Kd on GlmR [1] and on GlmR [2] were 1670 ± 310 µM and 280 ± 40 µM, respectively.
